Laboratory results reported in ChEMBL document CHEMBL1132515, “4-Chlorobenzyl sulfonamide and sulfamide derivatives of histamine homologues: the design of potent histamine H3 receptor antagonists” (Bioorg Med Chem Lett, 1999).

Each molecule was assayed against Histamine H3 receptor (Cavia porcellus) (UniProt Q9JI35) (assay: Inhibition of neurogenic contractions in guinea pig ileum mediated by histamine H3 receptors).
Format: functional, tissue-based

Sequence of Histamine H3 receptor (Cavia porcellus) (Q9JI35 whole entry): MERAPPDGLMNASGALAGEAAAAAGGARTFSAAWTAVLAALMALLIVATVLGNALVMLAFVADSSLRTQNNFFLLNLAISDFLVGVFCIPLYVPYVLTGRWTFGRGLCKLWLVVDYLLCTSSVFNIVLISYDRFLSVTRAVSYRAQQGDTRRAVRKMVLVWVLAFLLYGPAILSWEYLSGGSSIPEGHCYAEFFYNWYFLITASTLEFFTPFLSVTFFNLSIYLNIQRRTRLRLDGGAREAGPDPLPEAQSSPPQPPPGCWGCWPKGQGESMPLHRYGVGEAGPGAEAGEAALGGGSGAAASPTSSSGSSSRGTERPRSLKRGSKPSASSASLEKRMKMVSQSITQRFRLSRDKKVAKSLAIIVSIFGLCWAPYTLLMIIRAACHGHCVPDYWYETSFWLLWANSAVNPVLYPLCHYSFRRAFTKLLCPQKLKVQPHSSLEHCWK

**Q.** Which pKB does the source give for O=S(=O)(NCCCCc1c[nH]cn1)NCc1ccc(-c2ccccc2)cc1 here?
**A.** The pKB was 8.32.

**Q.** Which pKB does the source give for O=S(=O)(NCCCCCCCCCCc1c[nH]cn1)NCc1ccc(Cl)cc1 here?
**A.** The pKB was < 5.

**Q.** With O=S(=O)(Cc1ccc(Cl)cc1)NCCCCCCc1c[nH]cn1 as the molecule, how does the pKB read?
**A.** Its pKB is 8.01.

**Q.** For O=S(=O)(Cc1ccc(-c2ccccc2)cc1)NCCCCc1c[nH]cn1, which pKB is on record?
**A.** The pKB was 8.1.

**Q.** O=S(=O)(Cc1ccc(Cl)cc1)NCCCCCCCCc1c[nH]cn1 was tested. Which pKB did it give?
**A.** The pKB was 6.64.

**Q.** With O=S(=O)(Cc1ccc(Cl)cc1)NCCCc1c[nH]cn1 as the molecule, how does the pKB read?
**A.** Its pKB is 6.29.

**Q.** Which pKB does the source give for O=S(=O)(NCCCCc1c[nH]cn1)NCc1ccc(F)cc1 here?
**A.** Its pKB is 7.7.

**Q.** Which pKB does the source give for O=S(=O)(Cc1ccc(F)cc1)NCCCCc1c[nH]cn1 here?
**A.** Its pKB is 7.32.

**Q.** O=S(=O)(Cc1ccc(Cl)cc1)NCCCCCCCCCCc1c[nH]cn1 was tested. Which pKB did it give?
**A.** Its pKB is < 5.

**Q.** O=S(=O)(NCCCCc1c[nH]cn1)NCc1ccccc1Cl was tested. Which pKB did it give?
**A.** Its pKB is 6.42.

**Q.** With O=S(=O)(NCCCCc1c[nH]cn1)NCc1ccccc1 as the molecule, how does the pKB read?
**A.** Its pKB is 7.01.

**Q.** With O=S(=O)(Cc1ccc(Cl)cc1)NCCCCCc1c[nH]cn1 as the molecule, how does the pKB read?
**A.** The pKB was 7.33.

**Q.** Which pKB does the source give for O=S(=O)(NCCCCCCc1c[nH]cn1)NCc1ccc(Cl)cc1 here?
**A.** The pKB was 8.77.

**Q.** How did the pKB turn out when O=S(=O)(Cc1ccc(Cl)cc1)NCCCCCCCc1c[nH]cn1 was run?
**A.** Its pKB is 7.36.

**Q.** O=S(=O)(NCCCCc1c[nH]cn1)NCc1ccc(Cl)cc1 was tested. Which pKB did it give?
**A.** The pKB was 8.68.

**Q.** O=S(=O)(Cc1ccc(Br)cc1)NCCCCc1c[nH]cn1 was tested. Which pKB did it give?
**A.** The pKB was 7.68.

**Q.** With O=S(=O)(NCCCCc1c[nH]cn1)NCc1ccc(I)cc1 as the molecule, how does the pKB read?
**A.** The pKB was 8.49.

**Q.** O=S(=O)(NCCCCc1c[nH]cn1)NCc1cccc(Cl)c1 was tested. Which pKB did it give?
**A.** Its pKB is 7.86.

**Q.** With O=S(=O)(NCCCCCCCc1c[nH]cn1)NCc1ccc(Cl)cc1 as the molecule, how does the pKB read?
**A.** Its pKB is 8.37.

**Q.** With O=S(=O)(NCCCCc1c[nH]cn1)NCc1ccc(Br)cc1 as the molecule, how does the pKB read?
**A.** Its pKB is 8.91.

**Q.** For COc1ccc(CNS(=O)(=O)NCCCCc2c[nH]cn2)cc1, which pKB is on record?
**A.** Its pKB is 7.06.

**Q.** O=S(=O)(NCCCCCCCCc1c[nH]cn1)NCc1ccc(Cl)cc1 was tested. Which pKB did it give?
**A.** Its pKB is 7.37.

**Q.** O=S(=O)(Cc1ccc(C(F)(F)F)cc1)NCCCCc1c[nH]cn1 was tested. Which pKB did it give?
**A.** Its pKB is 7.89.

**Q.** O=S(=O)(NCCCc1c[nH]cn1)NCc1ccc(Cl)cc1 was tested. Which pKB did it give?
**A.** Its pKB is 7.04.

**Q.** How did the pKB turn out when O=S(=O)(Cc1ccc(Cl)cc1)NCCCCc1c[nH]cn1 was run?
**A.** Its pKB is 8.62.

**Q.** With O=S(=O)(NCCCCc1c[nH]cn1)NCc1ccc(C(F)(F)F)cc1 as the molecule, how does the pKB read?
**A.** The pKB was 8.48.

**Q.** How did the pKB turn out when O=S(=O)(NCCCCCc1c[nH]cn1)NCc1ccc(Cl)cc1 was run?
**A.** The pKB was 8.2.

These molecules were tested against Histamine H3 receptor (Cavia porcellus, UniProt Q9JI35) (assay: Ability to displace [3H]R-alpha-methylhistamine from histamine H3 receptor in guinea pig ileum longitudinal muscle myenteric plexus(LMMP) membranes).
Sequence of Histamine H3 receptor (Q9JI35 whole entry): as above
Format: tissue-based

**Q.** Which Ki does the source give for O=S(=O)(NCCCCCCCCc1c[nH]cn1)NCc1ccc(Cl)cc1 here?
**A.** The Ki was 13.2 nM.

**Q.** O=S(=O)(NCCCCc1c[nH]cn1)NCc1ccc(C(F)(F)F)cc1 was tested. Which Ki did it give?
**A.** Its Ki is 2.63 nM.
